Test results published in PubChem BioAssay (NCI).
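Method: 48-hour compound exposure of cells in 96-well plates, five concentrations, linear interpolation of endpoints. GI50 is the concentration that inhibits growth by half. TGI: concentration producing complete growth inhibition.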

Key:
Assay in all cases: DTP human tumour cell line panel, 48 h
[1] = tested on: NCI-H522 lung
[2] = tested on: SNB-19 CNS
[3] = tested on: UACC-62 melanoma
[4] = tested on: KM12 colon
[5] = tested on: SN12C renal
[6] = tested on: CAKI-1 renal
[7] = tested on: SF-295 CNS
[8] = tested on: SK-MEL-28 melanoma
[9] = tested on: UACC-257 melanoma
[10] = tested on: SNB-75 CNS

SMILES | TGI [1] [µM] | TGI [2] [µM] | TGI [3] [µM] | TGI [4] [µM] | TGI [5] [µM] | TGI [6] [µM] | TGI [7] [µM] | TGI [8] [µM] | TGI [9] [µM] | TGI [10] [µM] | GI50 [1] [µM] | GI50 [2] [µM] | GI50 [3] [µM] | GI50 [4] [µM] | GI50 [5] [µM] | GI50 [6] [µM] | GI50 [7] [µM] | GI50 [8] [µM] | GI50 [9] [µM] | GI50 [10] [µM]
CC(NC(=O)N(C)C)NC(=O)N(C)C | > 10 | > 10 | > 10 | > 10 | > 10 | > 10 | > 10 | > 10 | > 10 | > 10 | – | – | – | – | – | – | – | – | – | –
COC(=O)C1(O)CC(=O)CCC1c1ccc(OC)cc1 (centres undefined) | > 100 | > 100 | > 100 | > 100 | > 100 | > 100 | > 100 | > 100 | > 100 | > 100 | – | – | – | – | – | – | – | – | – | –
Cc1ccc(NC(=O)c2cc(S(=O)(=O)N3C(=O)NC(=O)NS3(=O)=O)c(S)cc2Cl)cc1 | > 100 | > 100 | 36 | 52.2 | > 100 | 60.9 | 55 | > 100 | 46.8 | > 100 | 36.1 | 69.5 | 15.7 | 22.2 | 31.2 | 30.6 | 26.2 | 34.4 | 17.2 | 91.6
CSc1nnc(COc2ccc(Cl)cc2)o1 | > 100 | > 100 | > 100 | > 100 | > 100 | > 100 | > 100 | > 100 | > 100 | > 100 | – | – | – | – | – | – | – | – | – | –
CC(=O)OCC1OC(N2C(=O)C(=O)c3ccccc32)C(OC(C)=O)C(OC(C)=O)C1OC(C)=O (centres undefined) | > 100 | > 100 | > 100 | > 100 | > 100 | > 100 | > 100 | > 100 | > 100 | > 100 | – | – | – | – | – | – | – | – | – | –
COc1cc(NCCCCCCCNC(C)C)c2nccc(C)c2c1 | 35 | 30 | 17.6 | 27.9 | 25.7 | 25.6 | 29.6 | 32.1 | 34.2 | 24.3 | 16 | 16 | 4.88 | 13.7 | 12.2 | 12.2 | 14.1 | 17.7 | 18.2 | 11.7
O=c1c(F)cn(Cc2ccccc2CCl)c(=O)n1Cc1ccccc1CCl | 3.01 | 13.3 | 2.94 | 3.68 | 10.4 | 3.58 | 6.16 | 3.32 | 2.44 | 6.36 | 1.45 | 3.5 | 1.33 | 1.74 | 2.75 | 1.71 | 2.14 | 1.4 | – | 1.97
c1c[nH]c(CN2CCOCC2)n1 | > 100 | > 100 | > 100 | > 100 | > 100 | > 100 | > 100 | > 100 | > 100 | > 100 | – | – | – | – | – | – | – | – | – | –
COc1ccc(C(=O)NCCN(C)C)c2nc3ccccc3nc12 | > 100 | > 53 | 17.8 | 32.4 | 80.1 | > 36.2 | > 36.1 | 16.8 | 13 | 78 | – | – | – | – | – | – | – | – | – | –
COc1ccc(OC)c(Cn2cc3c(c2-c2ccccc2)CCc2cnoc2-3)c1 | 6.25 | > 100 | > 100 | > 100 | > 100 | > 100 | > 100 | > 100 | > 100 | 9.9 | 1.74 | 9.43 | 3.8 | 3.61 | 23.8 | 4.35 | 3.19 | 6.8 | 30.7 | 2.89
Cc1nc(C(N)=S)sc1C(=O)/C=C/c1c(O)ccc2ccccc12 | > 63 | > 100 | > 87.9 | > 93.1 | > 100 | > 100 | > 100 | > 100 | > 100 | > 100 | – | – | – | – | – | – | – | – | – | –
O=C(O)[C@H](c1ccccc1)[C@@H](C(=O)O)c1ccccc1 | > 100 | > 100 | > 100 | > 100 | > 100 | > 100 | > 100 | > 100 | > 100 | > 100 | – | – | – | – | – | – | – | – | – | –
CCC(=O)Nc1nc2c(ncn2C2OC(COC(=O)CC)C(OC(=O)CC)C2OC(=O)CC)c(=O)[nH]1 (centres undefined) | > 100 | > 100 | > 100 | > 100 | > 100 | > 100 | > 100 | > 100 | > 100 | > 100 | – | – | – | – | – | – | – | – | – | –
CC(=O)O[C@H]1CCc2c(cc(N)c3c2C(=O)C[C@]2(C)C([C@H](C)CCCC(C)C)CCC32C)C1(C)C (some centres undefined) | > 100 | > 100 | > 100 | > 100 | > 100 | > 100 | > 100 | > 100 | > 100 | > 100 | – | – | – | – | – | – | – | – | – | –
CC(C)(C)OC(=O)NCCCCCCCn1c2c(c3ccccc3c1=O)C(=O)c1ccccc1-2 | > 100 | > 100 | 72.8 | > 100 | > 100 | 73 | > 100 | > 100 | > 100 | 49.7 | 26.4 | 32.5 | 20 | 60.6 | 73.7 | 32.2 | 37.4 | 50.4 | 41.4 | 21.5
CCCCn1c(-c2ccc(C(=O)O/N=C(\N)c3ccc4c(c3)OCO4)cc2)nc(-c2ccccc2)c1-c1ccccc1 | 4.89 | 43.6 | 8.93 | > 100 | 3.7 | 3.37 | 4.38 | > 100 | > 100 | 3.88 | 2.04 | 3.04 | 2.72 | 4.72 | 1.8 | 1.35 | 2.03 | 5.69 | 6.43 | 1.53
C/C(=N/NC(=O)C[N+](C)(C)C)C(CN(C)C)C(=O)Nc1ccccc1 (centres undefined) | > 100 | > 100 | > 100 | > 100 | > 100 | > 100 | > 100 | > 100 | > 100 | > 100 | – | – | – | – | – | – | – | – | – | –
